Source: ChEMBL document CHEMBL1140619
Square brackets hold non-standard residues; d marks the D form. Peptide text beside a SMILES is read from it. * marks the point of attachment. Tyr(Nα,Nα-allyl2) = C=CCN(CC=C)[C@@H](Cc1ccc(O)cc1)C(=O)*; Aib = CC(C)(N)C(=O)O

Legend:
[1] = molecular target: Delta-type opioid receptor (Rattus norvegicus) (UniProt P33533); experiment: Agonist activity at rat delta opioid receptor expressed in C6 cells assessed as stimulation of [35S]GTP-gamma-S binding relative to BW373U86; assay type: functional, cell-based
[2] = molecular target: Delta-type opioid receptor (Rattus norvegicus) (UniProt P33533); experiment: Displacement of [3H]naltrindole from rat delta opioid receptor expressed in C6 cells; assay type: cell-based

Chain of Delta-type opioid receptor (Rattus norvegicus) (P33533 whole entry): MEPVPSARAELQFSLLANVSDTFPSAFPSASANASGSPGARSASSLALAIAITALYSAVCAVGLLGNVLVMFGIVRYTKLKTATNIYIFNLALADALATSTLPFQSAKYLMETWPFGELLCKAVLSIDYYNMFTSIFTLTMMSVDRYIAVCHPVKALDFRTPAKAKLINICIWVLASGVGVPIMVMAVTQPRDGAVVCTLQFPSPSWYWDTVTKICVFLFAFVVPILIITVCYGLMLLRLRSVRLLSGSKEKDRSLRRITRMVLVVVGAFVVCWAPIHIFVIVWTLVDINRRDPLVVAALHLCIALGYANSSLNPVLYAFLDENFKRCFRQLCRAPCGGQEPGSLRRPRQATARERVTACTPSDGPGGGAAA

Which Activity [1] does the source give for `C=CCN1C[C@H](C)N([C@H](c2ccc(C(=O)N(CC)CC)cc2)c2cccc(OC)c2)C[C@H]1C` here?
Its Activity is 1.02.

What about the Activity [2] of the same molecule?
The Activity was 60 nM.

What does the source list for `C=CCN(CC=C)[C@@H](Cc1ccc(O)cc1)C(=O)NC(C)(C)C(=O)NC(C)(C)C(=O)N[C@@H](Cc1ccccc1)C(=O)N[C@@H](CC(C)C)C(=O)O` ({Tyr(Nα,Nα-allyl2)}-[Aib][Aib]FL-OH)?
Activity [1]: 0; Activity [2]: 37 nM

How did the Activity [1] turn out when `CC(C)[C@H](NC(=O)[C@H](CC(=O)O)NC(=O)[C@H](Cc1ccccc1)NC(=O)[C@@H](C)NC(=O)[C@@H](N)Cc1ccc(O)cc1)C(=O)N[C@H](C(=O)NCC(N)=O)C(C)C` was run?
The Activity was 0.59.

And the Activity [2]?
Its Activity is 81 nM.

`CN1CC[C@]23c4c5ccc(O)c4O[C@H]2C(=O)C2(Cc4ccccc4C2)C[C@@]3(O)[C@H]1C5` was tested. Which Activity [1] did it give?
The Activity was 0.18.

And the Activity [2]?
The Activity was 8.4 nM.

Which results are given for `CN1CC[C@]23c4c5ccc(O)c4O[C@H]2c2[nH]c4ccccc4c2C[C@@]3(O)[C@H]1C5`?
Activity [1]: 0.12; Activity [2]: 6.5 nM

With `CC(C)C[C@H](NC(=O)[C@H](Cc1ccccc1)NC(=O)CNC(=O)[C@@H](CO)NC(=O)[C@@H](N)Cc1ccc(O)cc1)C(=O)N[C@H](C(=O)O)[C@@H](C)O` as the molecule, how does the Activity [1] read?
Its Activity is 0.9.

And the Activity [2]?
Its Activity is 93 nM.

`Oc1ccc2c3c1O[C@H]1c4[nH]c5ccccc5c4C[C@@]4(O)[C@@H](C2)N(CC2CC2)CC[C@]314` was tested. Which Activity [1] did it give?
The Activity was 0.

Which Activity [2] does the source give for `Oc1ccc2c3c1O[C@H]1c4oc5ccccc5c4C[C@@]4(O)[C@@H](C2)N(CC2CC2)CC[C@]314` here?
The Activity was 0.037 nM.

`O=C1/C(=C/c2ccccc2)C[C@@]2(O)[C@H]3Cc4ccc(O)c5c4[C@@]2(CCN3CC2CC2)[C@H]1O5` was tested. Which Activity [2] did it give?
Its Activity is 0.079 nM.

For `C=CCN1C[C@H](C)N([C@H](c2ccc(C(=O)N(CC)CC)cc2)c2cccc(O)c2)C[C@H]1C`, which Activity [2] is on record?
Its Activity is 0.45 nM.

Which Activity [1] does the source give for `CC1(C)SSC(C)(C)C(NC(=O)[C@@H](N)Cc2ccc(O)cc2)C(=O)NCC(=O)N[C@@H](Cc2ccc(Cl)cc2)C(=O)NC1C(=O)O` (stereo in doubt) here?
The Activity was 0.8.

And the Activity [2]?
The Activity was 135 nM.
